The source of these data is patent US20100105652A1, “PURINES AS CYSTEINE PROTEASE INHIBITORS” (Glaxo Group Limited, priority 2007, published 2010).

The structures appear in SMILES notation. Structures can show the parent of a compound that is named as a salt.

The target in one test is T1, Falcipain-3 (Plasmodium falciparum, UniProt Q8IIL0).
T1 sequence (Q8IIL0 243-492): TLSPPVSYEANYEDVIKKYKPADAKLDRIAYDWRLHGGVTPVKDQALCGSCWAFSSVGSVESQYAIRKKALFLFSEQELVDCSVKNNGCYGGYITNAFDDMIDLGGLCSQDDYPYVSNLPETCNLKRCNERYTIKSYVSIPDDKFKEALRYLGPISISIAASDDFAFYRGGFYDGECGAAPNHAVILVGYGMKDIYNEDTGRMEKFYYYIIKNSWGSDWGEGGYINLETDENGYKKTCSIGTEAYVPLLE
Nature of the test: falcipain-3 enzymatic assay (fluorogenic substrate H-D-VLR-AFC, endpoint). Format: biochemical. Conditions: parasitic recombinant enzyme, pH 5.5, quenched after 60 minutes.

The test system of test [1] is Plasmodium falciparum parasite. Nature of the test: whole cell activity against the Plasmodium falciparum parasite. The format is cell-based.
In another test the target is T2, Falcipain-2 (Plasmodium falciparum, UniProt Q8I6U4).
T2 sequence (Q8I6U4 244-484): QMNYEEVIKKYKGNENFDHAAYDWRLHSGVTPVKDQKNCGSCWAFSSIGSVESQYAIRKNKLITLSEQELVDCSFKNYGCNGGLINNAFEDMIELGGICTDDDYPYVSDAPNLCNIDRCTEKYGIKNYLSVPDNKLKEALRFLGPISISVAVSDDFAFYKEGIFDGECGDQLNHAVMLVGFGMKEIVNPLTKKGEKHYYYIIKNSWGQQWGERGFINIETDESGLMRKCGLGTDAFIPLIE
In words: falcipain-2 enzymatic assay (fluorogenic substrate H-D-VLR-AFC, endpoint). Conditions: parasitic recombinant enzyme, pH 5.5, quenched after 60 minutes. Format: biochemical.

For the molecule `CN(C)CCCn1cnc2c(N(NC(=O)c3ccc(CN4CCN(C)CC4)cc3)C3CCCC3)nc(C#N)nc21` [Example 17, N′-{2-cyano-9-[3-(dimethylamino)propyl]-9H-purin-6-yl}-N′-cyclo pentyl-4-[(4-methyl-1-piperazinyl)methyl]benzohydrazide trifluoroacetate], the IC50 fell in the range of 250 to 400 nM at Falcipain-3, 15 to 150 nM in test [1] and 1 to 2.5 nM on Falcipain-2.
The like results for `CN1CCN(Cc2ccc(C(=O)NN(CC3CCCC3)c3nc(C#N)nc4c3ncn4C)cc2)CC1` [Example 23, N′-(2-cyano-9-methyl-9H-purin-6-yl)-N′-(cyclopentylmethyl)-4-[(4-methyl-1-piperazinyl)methyl]benzohydrazide trifluoroacetate] were, in that order, 15 to 150 nM, 400 to 1000 nM and 2.5 to 15 nM.
With `Cn1cnc2c(N(NC(=O)c3ccc(CN4CC(N5CCCC5)C4)cc3)C3CCCC3)nc(C#N)nc21` [Example 7, N′-(2-cyano-9-methyl-9H-purin-6-yl)-N′-cyclopentyl-4-({[3-(1-pyrrolidinyl)-1-azetidinyl]methyl}benzohydrazide trifluoroacetate], the IC50 on Falcipain-3 was in the range of 250 to 400 nM; in test [1] it was 15 to 150 nM; at Falcipain-2, 2.5 to 15 nM.
Turning to `CC(C)CN(NC(=O)c1ccc(CN2CCN(C)CC2)cc1)c1nc(C#N)nc2c1ncn2C` [Example 22, N′-(2-cyano-9-methyl-9H-purin-6-yl)-4-[(4-methyl-1-piperazinyl)methyl]-N′-(2-methylpropyl)benzohydrazide], the IC50 on Falcipain-3 fell in the range of 250 to 400 nM; in test [1], 400 to 1000 nM; at Falcipain-2 it was 15 to 150 nM.
The like results for `CN1CCC(CN2CCN(Cc3ccc(C(=O)NN(c4nc(C#N)nc5c4ncn5C)C4CCCC4)cc3)CC2)CC1` [Example 5, N′-(2-cyano-9-methyl-9H-purin-6-yl)-N′-cyclopentyl-4-({4-[(1-methyl-4-piperidinyl)methyl]-1-piperazinyl}methyl)benzohydrazide trifluoroacetate] were, in that order, 250 to 400 nM, 2.5 to 15 nM and 2.5 to 15 nM.
With `CN1CCC(CN2CCN(Cc3ccc(C(=O)NN(CC4CCCC4)c4nc(C#N)nc5c4ncn5C)cc3)CC2)CC1` [Example 2, N′-(2-cyano-9-methyl-9H-purin-6-yl)-N′-(cyclopentylmethyl)-4-({4-[(1-methyl-4-piperidinyl)methyl]-1-piperazinyl}methyl)benzohydrazide trifluoroacetate], the IC50 at Falcipain-3 is 15 to 150 nM; in test [1] it was 15 to 150 nM; on Falcipain-2 it was 2.5 to 15 nM.
As to `CN1CCN(Cc2cccc(C(=O)NN(c3nc(C#N)nc4c3ncn4C)C3CCCC3)n2)CC1` [Example 26, N′-(2-cyano-9-methyl-9H-purin-6-yl)-N′-cyclopentyl-6-[(4-methyl-1-piperazinyl)methyl]-2-pyridinecarbohydrazide trifluoroacetate], the IC50 on Falcipain-3 was in the range of 150 to 250 nM; in test [1], 250 to 400 nM; on Falcipain-2, 2.5 to 15 nM.

As usually defined, the IC50 is the midpoint of a concentration-inhibition curve.
